These results are taken from US20260373119A1, “NOVEL COMPOUND, AND COMPOSITION FOR PREVENTING OR TREATING HER2-POSITIVE CANCER, COMPRISING SAME” (EWHA UNIVERSITY - INDUSTRY COLLABORATION FOUNDATION, priority 2022, published 2026).

Data set [1] has as its target T1, (His)6-MED23391-582 / FITC-ELF3129-145 peptide (Homo sapiens, UniProt Q9ULK4).
T1 construct: 391-582 and fluorescein isothiocyanate (FITC)-labeled
T1 sequence (Q9ULK4 391-582 limits assumed): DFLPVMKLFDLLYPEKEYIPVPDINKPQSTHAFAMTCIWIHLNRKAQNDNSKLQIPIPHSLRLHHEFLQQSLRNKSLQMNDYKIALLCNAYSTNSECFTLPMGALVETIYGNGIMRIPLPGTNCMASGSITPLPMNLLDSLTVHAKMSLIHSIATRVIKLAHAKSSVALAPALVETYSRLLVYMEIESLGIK
Nature of the data set: fluorescence polarization displacement assay. The format is binding. As for the experimental part: The samples, adjusted to a final volume of 50 μL, were incubated at room temperature for 30 minutes. Kd values were calculated using a least-squares non-linear fit method with Prism 6.0 software (GraphPad Software, USA). FP signals were measured in millipolarization (mP) units using an Infinite F200 PRO microplate reader (Tecan Group Ltd., Switzerland) at an excitation wavelength of 485 nm and an emission wavelength of 535 nm. For displacement analysis, graded concentrations of YK1 and unlabeled ELF3137-144 peptides were mixed with 80 nM (His) 6-MED23391-582 and 10 nM FITC-ELF3129-145.
The effect of compound YK1 was confirmed by measuring the reduction in FP signals, using unlabeled peptides as a positive control. The IC50 of each compound was determined by fitting the data to a four-parameter logistic equation using the Table Curve 2D program (SPSS Inc.). The Ki value was calculated using the Cheng-Prusoff equation (Ki=IC50/1+([Ligand]/Kd))

The next data set has as its target T2, MED23^D400A/H449G (Homo sapiens, UniProt Q9ULK4, D400A/H449G).
T2 construct: FLAG pulldown, LC-MS/MS
Briefly: LC-MS/MS protein-small molecule interaction, double mutant. Type of data set: binding. As to conditions: FLAG pulldown. As for the experimental part:
HEK293 cells were seeded in a […] and incubated until they reached 70-80% confluency. The cells were transfected with p3Xflag-myc-CMV26-MED23^WT and p3Xflag-myc-CMV26-MED23^D400A/H449G plasmids for 24 hours, followed by lysis to obtain protein extracts. To isolate the candidate compound (YK1) bound to MED23, total lysates were incubated with YK1 for 4 hours and subsequently subjected to pulldown using FLAG-agarose beads (Sigma Aldrich, USA). The precipitated beads were washed at least three times to completely remove unbound compounds. To separate the candidate compound from the precipitated MED23, 50 μL of the sample was extracted with 1 mL of acetonitrile and centrifuged at 13,000 rpm at 4 °C for 10 minutes. The supernatant (1,000 μL) from each sample was transferred to a new tube and dried under nitrogen gas at 37 °C. For YK1 analysis, the residue was dissolved in 50 μL of ACN and vortexed for 10 minutes. […] The mixture was then extracted with 450 μL of ACN by ultrasonic treatment and vortex mixing. The candidate compound bound to MED23 was finally analyzed using an Agilent 6460 triple quadrupole mass spectrometer (Agilent Technologies, USA).

The target of data set [2] is Nluc-ELF3 / Cluc-MED23391-462 (Homo sapiens, UniProt Q9ULK4). Briefly: split luciferase biosensor assay. Type of data set: cell-based. Conditions: dose-dependent. The protocol: The biosensor used for the assay was prepared using the In-Fusion® HD Cloning Kit with firefly (Photinus pyralis) luciferase. The luciferase enzyme was split into two fragments (Nluc and Cluc). The full-length ELF3 (wild-type) and MED23 mutants were cloned into the […] and KpnI sites, and the NotI and KpnI sites of p3Xflag-myc-CMV26, respectively. The full-length cDNA of human ELF3 (accession number NM_001114309.1) was fused to the N-terminal fragment of split luciferase (Nluc), while the […] of MED23 (accession number NM_001270521.1) was fused to the C-terminal of split luciferase (Cluc).
Bioluminescence intensity, complementarily generated by ELF3-MED23 binding, was measured using this method (FIG. 3B).

The target of a further data set is c-RAF (Homo sapiens, UniProt P04049). Briefly: kinase profiling, c-RAF. The format is biochemical. As to conditions: read-out: In vitro kinase inhibitory activity (%). The protocol:
(§1) Kinase inhibitory activity of the candidate compound at 10 μM and 25 μM was assessed using Eurofins Kinase Profiling Services. Inhibitory effects on c-RAF, EGFR, ErbB2, ErbB4, and PI3 kinase were analyzed according to the Kinase Profiler Service Assay protocol.

Data set [3] has as its target HER family kinases (EGFR, ErbB2, and ErbB4) or kinases associated with the AKT/MAPK pathway (PI3 kinase and c-RAF). Briefly: kinase profiling, summary over the panel. Conditions: 10 μM and 25 μM. Type of data set: biochemical. As for the experimental part: as §1
The test system of a further data set is NCI-N87 xenograft. Briefly: NCI-N87 xenograft, tumor growth. Type of data set: in vivo, mice. Conditions: 4 mg/kg, intravenous, six times at 3-day intervals. As for the experimental part: (§2) Xenograft mice were generated to evaluate the anticancer effects of the candidate compound. NCI-N87 and JIMT-1 cells (5×10^6 cells), dissolved in 100 μL of 1× phosphate-buffered saline (PBS), were subcutaneously injected into the right flanks of 5-week-old female athymic nude mice (Envigo, USA) or 4-week-old female NOD-SCID mice (Koatech, South Korea). When the tumors reached a volume of 90-100 mm^3, the mice were randomized into designated groups. For the NCI-N87 xenograft, intravenous administration was performed six times at 3-day intervals. For the JIMT-1 xenograft, intraperitoneal administration was performed eight times at 3-day intervals. […] Tumor size changes were monitored until the mean tumor size in the control group reached 2,000-2,500 mm^3. On day 28 for the NCI-N87 xenograft and day 46 for the JIMT-1 xenograft, the mice were sacrificed, and tumors were excised to determine relative tumor sizes. Tumor length (L) and width (W) were measured with calipers, and tumor volume was calculated using the formula: […]

A further data set is described as follows: permeability. The format is in vitro ADME.
A further data set deals with TZMB-resistant cells. Nature of the data set: treatment of TZMB-resistant cells. Type of data set: cell-based. As to conditions: BT474 TR, NCI-N87 TR, JIMT-1.
The subject of the next data set is JIMT-1 xenograft. Nature of the data set: JIMT-1 xenograft, tumor growth. Type of data set: in vivo, mice. As to conditions: 4 mg/kg, intraperitoneal, eight times at 3-day intervals. The protocol:
as §2

Data set [4] is described as follows: JIMT-1 xenograft, body weight. Type of data set: in vivo, mice. Conditions: 4 mg/kg.
Protocol: Xenograft mice were generated to evaluate the anticancer effects of the candidate compound. […] When the tumors reached a volume of 90-100 mm^3, the mice were randomized into designated groups. […] For the JIMT-1 xenograft, intraperitoneal administration was performed eight times at 3-day intervals. […] Tumor size changes were monitored until the mean tumor size in the control group reached 2,000-2,500 mm^3. On day 28 for the NCI-N87 xenograft and day 46 for the JIMT-1 xenograft, the mice were sacrificed, and tumors were excised to determine relative tumor sizes. Tumor length (L) and width (W) were measured with calipers, and tumor volume was calculated using the formula:
To assess resistance-avoidance effects in vivo, JIMT-1 xenograft mice were treated with 4 mg/kg of the candidate compound or TZMB.

c-RAF, sequence (P04049 whole entry): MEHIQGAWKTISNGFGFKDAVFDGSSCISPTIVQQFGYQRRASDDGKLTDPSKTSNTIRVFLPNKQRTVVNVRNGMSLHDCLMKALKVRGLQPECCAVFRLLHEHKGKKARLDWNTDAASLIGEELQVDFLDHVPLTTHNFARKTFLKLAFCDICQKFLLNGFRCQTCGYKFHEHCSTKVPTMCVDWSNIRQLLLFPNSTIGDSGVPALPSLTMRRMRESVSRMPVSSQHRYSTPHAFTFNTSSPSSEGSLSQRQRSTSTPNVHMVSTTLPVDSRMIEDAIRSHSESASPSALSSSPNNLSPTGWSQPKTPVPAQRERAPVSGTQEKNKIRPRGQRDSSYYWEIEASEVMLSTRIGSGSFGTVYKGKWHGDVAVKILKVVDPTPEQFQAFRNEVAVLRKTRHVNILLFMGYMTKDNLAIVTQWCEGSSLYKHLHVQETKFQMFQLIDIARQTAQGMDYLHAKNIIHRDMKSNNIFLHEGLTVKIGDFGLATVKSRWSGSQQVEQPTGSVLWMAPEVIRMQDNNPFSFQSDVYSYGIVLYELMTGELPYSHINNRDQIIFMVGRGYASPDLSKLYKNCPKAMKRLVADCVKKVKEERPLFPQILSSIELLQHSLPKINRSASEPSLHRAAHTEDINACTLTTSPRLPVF
T2 sequence (Q9ULK4 whole entry D400A/H449G): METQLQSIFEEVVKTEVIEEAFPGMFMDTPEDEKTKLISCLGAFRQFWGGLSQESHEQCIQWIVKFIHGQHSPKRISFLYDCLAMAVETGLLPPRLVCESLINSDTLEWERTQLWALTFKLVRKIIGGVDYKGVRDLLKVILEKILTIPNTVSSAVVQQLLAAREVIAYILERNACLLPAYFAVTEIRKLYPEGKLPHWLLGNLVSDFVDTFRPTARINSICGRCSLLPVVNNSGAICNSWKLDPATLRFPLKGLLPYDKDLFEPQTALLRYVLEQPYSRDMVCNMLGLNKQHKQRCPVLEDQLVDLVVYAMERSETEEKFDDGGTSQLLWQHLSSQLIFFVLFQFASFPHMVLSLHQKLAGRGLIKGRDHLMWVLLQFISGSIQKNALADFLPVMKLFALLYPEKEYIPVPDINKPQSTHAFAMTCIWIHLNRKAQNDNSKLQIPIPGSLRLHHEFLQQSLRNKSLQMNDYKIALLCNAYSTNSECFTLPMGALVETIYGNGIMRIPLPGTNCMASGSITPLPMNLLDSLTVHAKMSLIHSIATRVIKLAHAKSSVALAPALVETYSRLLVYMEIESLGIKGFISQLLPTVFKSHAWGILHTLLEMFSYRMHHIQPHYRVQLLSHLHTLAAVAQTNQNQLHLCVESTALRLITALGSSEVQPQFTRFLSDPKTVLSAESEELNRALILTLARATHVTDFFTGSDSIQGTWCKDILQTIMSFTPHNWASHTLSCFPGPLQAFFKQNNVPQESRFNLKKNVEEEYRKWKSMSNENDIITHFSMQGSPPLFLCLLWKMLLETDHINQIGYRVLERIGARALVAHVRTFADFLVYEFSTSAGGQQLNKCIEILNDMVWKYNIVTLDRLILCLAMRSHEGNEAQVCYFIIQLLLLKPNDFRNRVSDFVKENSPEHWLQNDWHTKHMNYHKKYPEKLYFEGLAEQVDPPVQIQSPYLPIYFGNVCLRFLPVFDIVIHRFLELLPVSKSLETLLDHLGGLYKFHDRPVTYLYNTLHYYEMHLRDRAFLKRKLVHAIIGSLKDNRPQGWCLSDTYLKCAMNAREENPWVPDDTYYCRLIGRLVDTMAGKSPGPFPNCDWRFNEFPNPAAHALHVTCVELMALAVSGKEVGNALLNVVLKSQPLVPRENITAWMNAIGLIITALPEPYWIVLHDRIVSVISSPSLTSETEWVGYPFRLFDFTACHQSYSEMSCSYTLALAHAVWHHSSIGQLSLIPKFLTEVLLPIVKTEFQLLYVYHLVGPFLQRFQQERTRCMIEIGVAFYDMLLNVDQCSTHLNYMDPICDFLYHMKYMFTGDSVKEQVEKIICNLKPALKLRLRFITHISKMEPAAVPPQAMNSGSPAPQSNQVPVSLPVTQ
Protocol for TZMB-resistant cells: The ability of the candidate compound to overcome trastuzumab resistance was evaluated.

`CC(=O)N1N=C(c2cccc(O)c2)CC1c1ccc(Cl)cc1` (stereo not drawn) [Compound 15, 1-[5-(4-Chlorophenyl)-3-(3-hydroxyphenyl)-4,5-dihydropyrazol-1-yl]-ethanone]: the Ki in data set [1] (80 nM (His)6-MED23391-582, 10 nM FITC-ELF3129-145, Cheng-Prusoff, read-out: PPI inhibitory activity calculated based on Ki value) is 4.27 ± 0.25 µM. Also, in data set [1] (displacement of FITC-ELF3129-145 from MED23391-582), the “decrease in FP signals” value was “significant decrease in FP signals”. The “binding to double mutant MED23” value on MED23^D400A/H449G is given as “unable to bind to the double mutant MED23^D400A/H449G”. In addition, the luciferase activity result in [2] was “dose-dependently and significantly reduced”. The inhibition at 10 µM on c-RAF (10 μM) amounted to 3%. In addition, the inhibition at 25 µM on c-RAF (25 μM) was found to be 10%. The “kinase inhibitory activity in words” value in [3] is given as “no significant inhibitory activity”. In addition, the “tumor volume / growth” value in the data set with NCI-N87 xenograft is “tumor volume was significantly reduced, and tumor growth was delayed”. Besides, the permeability entry in “permeability” is “reasonable”. In addition, the “anticancer effect in TZMB-resistant cells” value with TZMB-resistant cells was “significant anticancer effects not only in TZMB-sensitive cells but also in TZMB-resistant cells”. Further, in the data set on JIMT-1 xenograft, the “tumor growth and volume” value was “significant decrease in tumor growth and volume”. The body weight entry in data set [4] was “remained generally consistent”.
